Patent publication US20050267166A1, “Continuous dosing regimen” (priority 2004, published 2005)

Key:
[1] = test system: NCI-H460 human non-small cell lung carcinoma; experiment: NCI-H460 xenograft model; assay type: in vivo
Description: NCI-H460 is a human non-small cell lung carcinoma derived cell line. It is MDR negative, has wild type p53, and contains an oncogenic K-ras mutation.

HT-29 colon carcinoma = experiment: HT-29 colon flank xenograft model (staged); assay type: in vivo, human
Method: Following inoculation of tumor cells, tumors were passaged three times in mice before using the fragments to generate single cell suspensions. Multiple animals were used as donors. Single cell suspensions were generated by homogenizing the minced tumor tissue in RPMI 1640 media. Cell suspensions were washed three times to remove debris and other foreign materials. Viable cells were counted by trypan blue exclusion technique using a hemocytometer. Mice were injected subcutaneously with 0.5 mL of the cell suspension containing 1×10^6 cells.
On day 10, mice bearing established tumors were size matched and grouped at about 236 mm^3.

MiaPaCa-2 pancreatic = experiment: MiaPaCa-2 orthotopic tumor model; assay type: in vivo, human; conditions: for % T/C: orthotopic, d 1-5, 11-15
Description: (2-((4-hydroxyphenyl)amino)pyrid-3-yl)-4-methoxybenzenesulfonamide inhibited the growth of a variety of human tumor xenografts that were allowed to grow into established tumors prior to the initiation of treatment. As summarized below, activity was seen against established tumors derived from colon, breast and lung carcinomas. (2-((4-hydroxyphenyl)amino)pyrid-3-yl)-4-methoxybenzenesulfonamide was also active against a human pancreatic tumor xenograft grown in the orthotopic site.

H-81 gastric cancer = experiment: human tumor xenograft in nude mice, H-81; assay type: in vivo; conditions: Q5D × 5, 300 mg/kg/day
SC-6 gastric cancer = experiment: human tumor xenograft in nude mice, SC-6; assay type: in vivo; conditions: Q5D × 5, 500 mg/kg/day
[2] = test system: COLO320DM colorectal cancer; experiment: human tumor xenograft in nude mice, COLO320DM; assay type: in vivo; conditions: Q1D × 19, 120 mg/kg/day
WiDr colorectal cancer = experiment: human tumor xenograft in nude mice, WiDr; assay type: in vivo; conditions: Q1D × 20, 100 mg/kg/day
LC-6 lung cancer = experiment: human tumor xenograft in nude mice, LC-6; assay type: in vivo; conditions: Q5D × 5, 450 mg/kg/day
MX-1 breast cancer = experiment: human tumor xenograft in nude mice, MX-1; assay type: in vivo; conditions: Q5D × 5, 450 mg/kg/day
KB oral cancer = experiment: human tumor xenograft in nude mice, KB; assay type: in vivo; conditions: Q1D × 20, 100 mg/kg/day
[3] = dose limiting toxicity in cancer subjects, single dose and 5-day repeated dose; assay type: in vivo, human
Method: (2-((4-hydroxyphenyl)amino)pyrid-3-yl)-4-methoxybenzenesulfonamide was evaluated in 57 cancer subjects in single dose (16 subjects) and 5-day repeated dose regimens (41 subjects). The doses administered in the single dose segment were 80 to 480 mg/m^2/day. In the 5-day repeated dose regimen (2-((4-hydroxyphenyl)amino)pyrid-3-yl)-4-methoxybenzenesulfonamide was given at 30 to 240 mg/m^2/day for a single cycle. […] Adverse drug reactions from the single dose and 5-day repeated dose segments included nausea and vomiting, diarrhea, epigastric pain, ileus and evidence of peripheral neuropathy. For the single dose segment, the dose limiting toxicity (DLT) was Grade 3 peripheral neuropathy in 1 of 5 subjects at 480 mg/m^2/day. In the 5-day repeated dose regimen the dose limiting toxicities were Grade 3 peripheral neuropathy in 1 of 4 subjects at 210 mg/m^2/day and Grade 4 intestinal paralysis in 1 of 4 subjects at 210 mg/m^2/day and in 1 of 6 subjects at 240 mg/m^2/day.

[4] = MTD and safety in the 7-day and 21-day QD regimens in patients; assay type: in vivo
Method: In the 7-day QD regimen, the 250 mg QD dose has been determined to be the MTD, as dose limiting toxicities of peripheral neuropathy/ileus were reported in 2 of 6 subjects at the 300 mg QD dose.
The tumor types studied were colorectal (23), sarcoma (5), mesothelioma (3), salivary gland (2), endometrial (2), unknown (2), hepatoma (1), melanoma (1), renal cell (1), lung (1), ovary (1), and granulosa cell (1). […] Doses were escalated by 50 mg/day (25 mg twice per day). Three patients were initially treated at each dose level. […] If additional patients experienced dose-limiting toxicity, on occasion the dose level was expanded to nine patients to further assess tolerability. Response assessment was performed every two cycles.

[5] = adverse side effects reported in 134 patients; assay type: in vivo, human; conditions: of 134 patients; 200-300 mg QD, 125-175 mg BID
Method: For 134 patients tested, at doses of about 200 mg QD, 250 mg QD, 300 mg QD, 125 mg BID, 150 mg BID, and 175 mg BID, 16 reported anemia, of which 11 were Grades I or II and 5 were Grades (III or IV); 1 reported Grade I or II alpoecia; 8 reported Grade I or II neutropenia; and none reported fluid retention, for which Grade I is defined as mild, Grade II is defined as moderate, Grade III is defined as severe, Grade IV is defined as life threatening.

[6] = tolerability of continuous 21 day once per day dosing in xenograft mice; assay type: in vivo, nude mice; conditions: 50 mg/kg/day
[7] = test system: M5076 transplantable murine reticulum cell sarcoma
in vivo = conditions: mouse, po
[8] = oral 75 mg/kg/d QD, d 10-14, 20-24
[9] = 5-day repeated dose, 210 mg/m^2/day
[10] = 150 mg/kg orally once a day for 5 days

COc1ccc(S(=O)(=O)Nc2cccnc2Nc2ccc(O)cc2)cc1 [ABT-751, N-(2-((4-hydroxyphenyl)amino)pyrid-3-yl)-4-methoxybenzenesulfonamide]
T/C, mean tumor volume ([1]; day 13): 58%
ILS (delay in tumor growth) ([1]; in vivo): 32%
efficacy in the NCI-H460 xenograft model ([1]; in words): good efficacy
antitumor activity as single agent (HT-29 colon carcinoma; 100 and 75 mg/kg/day, (5 days on/5 days off)×2): significant antitumor activity
response in combination with 5-fluorouracil (HT-29 colon carcinoma; in combination with 5-fluorouracil at 30 mg/kg/day, higher doses): additive responses
% T/C (HT-29 colon carcinoma; oral 50 mg/kg/d QD, d 1-21): 55%
% ILS (HT-29 colon carcinoma; [8]): 50%
% T/C (HT-29 colon carcinoma; [8]): 43%
% T/C (HT-29 colon carcinoma; oral 100 mg/kg/d QD, d 10-14, 20-24): 28%
antitumor activity in combination with gemcitabine compared to single agent alone (MiaPaCa-2 pancreatic; in combination with gemcitabine, MiaPaCa2 pancreatic xenograft): increase in antitumor activity
% T/C (MiaPaCa-2 pancreatic; oral 75 mg/kg/d QD): 79%
% T/C (MiaPaCa-2 pancreatic; oral 100 mg/kg/d QD): 56%
T/C (%) (H-81 gastric cancer): 40%
T/C (%) (SC-6 gastric cancer): 22%
T/C (%) [2]: 42%
T/C (%) (WiDr colorectal cancer): 22%
T/C (%) (LC-6 lung cancer): 31%
T/C (%) (MX-1 breast cancer): 21%
T/C (%) (KB oral cancer): 15%
dose limiting toxicity: Grade 3 peripheral neuropathy, subjects affected [3, 9]: 1 of 4
dose limiting toxicity: Grade 4 intestinal paralysis, subjects affected [3, 9]: 1 of 4
dose limiting toxicity: Grade 4 intestinal paralysis, subjects affected ([3]; 5-day repeated dose, 240 mg/m^2/day): 1 of 6
dose limiting toxicity: Grade 3 peripheral neuropathy, subjects affected ([3]; single dose, 480 mg/m^2/day): 1 of 5
MTD ([4]; 7-day QD regimen): 250 mg
MTD ([4]; QD regimen given for 21 days): 200 mg
dose limiting toxicities of fatigue, anorexia and suspect small bowel obstruction, subjects affected ([4]; human, in vivo): ⅔
myelosuppression, renal or hepatic toxicity ([4]; human, in vivo): no significant
dose limiting toxicities of peripheral neuropathy/ileus, subjects affected ([4]; human, in vivo, 7 days): 2 of 6
patients reporting Grade I or II alopecia [5]: 1
patients reporting Grade I or II neutropenia [5]: 8
patients reporting anemia [5]: 16
patients reporting anemia Grades I or II [5]: 11
patients reporting anemia Grades III or IV [5]: 5
patients reporting fluid retention [5]: none
adverse side effects [6]: essentially without adverse side effects
ILS (percent increase in life span) [7, 10]: 42%
T/C (tumor mass of test group divided by tumor mass of control group) [7, 10]: 13%
antitumor activity in the M5076 model ([7]; in words): significant antitumor activity
MTD (in vivo): ~150 mg/kg
